Experimental data published in US6824786B2, “Compositions comprising phenyl-glycine derivatives” (priority 2001, dated 2004).

Columns and labels:
Format in all cases: in vivo, human
[1] = system: severe dry skin condition of X-linked ichthyosis; assay: Topical treatment of X-linked ichthyosis skin under Hays Occlusive Chamber
chronic plaque psoriasis = assay: Topical treatment of chronic plaque psoriasis
Source text: A subject, having chronic plaque psoriasis for 55 year duration resistant to all forms of topical therapy, topically applied N-acetyl-4-hydroxyphenyl-glycinamide 10% cream twice daily to a thick plaque of psoriasis on the right elbow. […] The clinical evaluation was judged to be a 75% improvement after five days of topical treatment. […] Clinical evaluation rated the improvement to be about 90%. Three patients having chronic plaque psoriasis resistant to most forms of topical therapy topically applied N-acetyl-4-acetoxyphenyl-glycinamide 5% cream (Example 24) twice daily to thick plaques of psoriasis. […] The clinical evaluation was judged to be an 80% improvement after one week of topical treatment. […] Clinical evaluation rated the improvement on three patients to be from 95 to 100%.

forearm skin = assay: Forearm skin thickness by micrometer calipers (skin changes associated with aging); details: 10% cream twice daily to right forearm for four weeks; subject
Method: In one of the studies related to skin changes associated with aging, skin thickness was measured by micrometer calipers as follows: The skin was grasped with a 2×6 cm metal hinge; the internal faces of which were coated with emery cloth to prevent slippage, and manually squeezed to threshold subject discomfort. Combined thickness of two whole-skin layers including thickness of the two hinge leaves was measured with micrometer calipers. Thickness of the two hinge leaves was subtracted to determine the actual thickness of two whole-skin layers. Triplicate measurements on treated sites were conducted and an average number was used for calculation of the skin thickness. A subject, applied topically twice daily N-acetyl-4-hydroxyphenyl-glycinamide 5% cream to their left forearm for eight weeks. […] While there was no change in skin thickness of their right forearm, their left forearm had increased 49% in skin thickness as measured by the micrometer calipers (Example 1). […] While there was no change in skin thickness of their right forearm, their left forearm had increased 24% in skin thickness as measured by the micrometer calipers (Example 1). […] While there was no change in skin thickness of their left forearm, their right forearm had increased 25% in skin thickness as measured by the micrometer calipers (Example 1).

[2] = 5% cream twice daily, after one week, three patients

Row | Structure (SMILES) | conclusion: topical treatment of severe dry skin and symptomatic relief of congenital ichthyosis ([1]; 10% cream) | clinical appearance of treated site after stopping treatment ([1]; 10% cream one week under chamber, then another week without any further treatment) | clinical appearance of treated site ([1]; 10% cream, 1 cm^2 involved skin of back under Hays Occlusive Chamber, after one week, subject) | erythema and thickness of the plaques (chronic plaque psoriasis; 5% cream (Example 24) twice daily, after one week, three patients) | clinical evaluation, improvement (chronic plaque psoriasis; [2]) | psoriatic scales (chronic plaque psoriasis; [2]) | clinical appearance of treated area (chronic plaque psoriasis; 5% cream twice daily, after two weeks, three patients) | conclusion: topical treatment of psoriasis (chronic plaque psoriasis; cream twice daily) | appearance of treated forearm (forearm skin) | increase in skin thickness (forearm skin)
1 | COC(=O)CNc1ccc(O)cc1 [4-hydroxyphenyl-glycine methyl ester] | therapeutically effective | remained normal in clinical appearance | free of all evidence of ichthyosis | – | – | – | – | – | – | –
2 | CC(=O)NC(=O)CNc1ccc(OC(C)=O)cc1 [N-acetyl-4-acetoxyphenyl-glycinamide] | – | – | – | diminished substantially | 80% | no evidence of any psoriatic scales | clinically normal | therapeutically effective | more firm, smooth, plump and minimally wrinkled when lifted | 25%
